Measured values taken from the supplement of paper PMC10307832.

Tests used:
Assay in all cases: relative viability (nuclei count vs DMSO), 5 days (fraction); higher = more cells survive
EPLC-272H = tested on: EPLC-272H
Procedure, shortened: (§1)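 Cells from lung cancer lines were seeded into 1536-well plates and, one day later, dosed by pin tool. Treatments were either a single drug or a fixed dose of an anchor drug with five library-drug doses (not always all listed) in √10 steps. After 5 days, nuclei were stained in a one-step fixation (final 0.05% Triton X-100, 1% formaldehyde, 1 ug/ml Hoechst) and counted on 4× images, and relative viability is the treated-to-vehicle nuclei ratio, as the median of duplicate plates.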

NCI-H1975 = tested on: NCI-H1975
Procedure, shortened: as §1

LXF-289 = tested on: LXF-289
Procedure, shortened: as §1

UMC-11 = tested on: UMC-11
Procedure, shortened: as §1

HCC-78 = tested on: HCC-78
Procedure, shortened: as §1

NCI-H1915 = tested on: NCI-H1915
Procedure, shortened: as §1

SK-LU-1 = tested on: SK-LU-1
Procedure, shortened: as §1

LC-2-ad = tested on: LC-2-ad
Procedure, shortened: as §1

NCI-H358 = tested on: NCI-H358
Procedure, shortened: as §1

NCI-H1755 = tested on: NCI-H1755
Procedure, shortened: as §1

HOP-62 = tested on: HOP-62
Procedure, shortened: as §1

NCI-H2170 = tested on: NCI-H2170
Procedure, shortened: as §1

NCI-H460 = tested on: NCI-H460
Procedure, shortened: as §1

A-427 = tested on: A-427
Procedure, shortened: as §1

LU99A = tested on: LU99A
Procedure, shortened: as §1

NCI-H2085 = tested on: NCI-H2085
Procedure, shortened: as §1

LCLC-97TM1 = tested on: LCLC-97TM1
Procedure, shortened: as §1

COR-L 105 = tested on: COR-L 105
Procedure, shortened: as §1

NCI-H1793 = tested on: NCI-H1793
Procedure, shortened: as §1

HCC-366 = tested on: HCC-366
Procedure, shortened: as §1

NCI-H1944 = tested on: NCI-H1944
Procedure, shortened: as §1

SW 900 = tested on: SW 900
Procedure, shortened: as §1

Compound: CC1(C)CCC(c2ccc(Cl)cc2)=C(CN2CCN(c3ccc(C(=O)NS(=O)(=O)c4ccc(N[C@H](CCN5CCOCC5)CSc5ccccc5)c(S(=O)(=O)C(F)(F)F)c4)cc3)CC2)C1 [Navitoclax] + O=C(CCCCCCC(=O)Nc1ccccc1)NO [Vorinostat] (partner 1 µM)
- relative viability (EPLC-272H; first compound 0.005 µM): 0.521
- relative viability (EPLC-272H; first compound 0.01581 µM): 0.561
- relative viability (EPLC-272H; first compound 0.05 µM): 0.292
- relative viability (EPLC-272H; first compound 0.1581 µM): 0.385
- relative viability (EPLC-272H; first compound 0.5 µM): 0.282
- relative viability (NCI-H1975; first compound 0.005 µM): 0.718
- relative viability (NCI-H1975; first compound 0.01581 µM): 0.765
- relative viability (NCI-H1975; first compound 0.05 µM): 0.752
- relative viability (NCI-H1975; first compound 0.1581 µM): 0.718
- relative viability (NCI-H1975; first compound 0.5 µM): 0.592
- relative viability (LXF-289; first compound 0.005 µM): 0.752
- relative viability (LXF-289; first compound 0.01581 µM): 0.842
- relative viability (LXF-289; first compound 0.05 µM): 0.697
- relative viability (LXF-289; first compound 0.1581 µM): 0.799
- relative viability (LXF-289; first compound 0.5 µM): 0.814
- relative viability (UMC-11; first compound 0.005 µM): 0.43
- relative viability (UMC-11; first compound 0.01581 µM): 0.371
- relative viability (UMC-11; first compound 0.05 µM): 0.39
- relative viability (UMC-11; first compound 0.1581 µM): 0.312
- relative viability (UMC-11; first compound 0.5 µM): 0.148
- relative viability (HCC-78; first compound 0.005 µM): 0.415
- relative viability (HCC-78; first compound 0.01581 µM): 0.49
- relative viability (HCC-78; first compound 0.05 µM): 0.429
- relative viability (HCC-78; first compound 0.1581 µM): 0.431
- relative viability (HCC-78; first compound 0.5 µM): 0.431
- relative viability (NCI-H1915; first compound 0.005 µM): 0.497
- relative viability (NCI-H1915; first compound 0.01581 µM): 0.499
- relative viability (NCI-H1915; first compound 0.05 µM): 0.556
- relative viability (NCI-H1915; first compound 0.1581 µM): 0.481
- relative viability (NCI-H1915; first compound 0.5 µM): 0.424
- relative viability (SK-LU-1; first compound 0.005 µM): 0.787
- relative viability (SK-LU-1; first compound 0.01581 µM): 0.776
- relative viability (SK-LU-1; first compound 0.05 µM): 0.689
- relative viability (SK-LU-1; first compound 0.1581 µM): 0.627
- relative viability (SK-LU-1; first compound 0.5 µM): 0.516
- relative viability (LC-2-ad; first compound 0.005 µM): 0.716
- relative viability (LC-2-ad; first compound 0.01581 µM): 0.686
- relative viability (LC-2-ad; first compound 0.05 µM): 0.665
- relative viability (LC-2-ad; first compound 0.1581 µM): 0.67
- relative viability (LC-2-ad; first compound 0.5 µM): 0.712
- relative viability (NCI-H358; first compound 0.005 µM): 0.705
- relative viability (NCI-H358; first compound 0.01581 µM): 0.816
- relative viability (NCI-H358; first compound 0.05 µM): 0.689
- relative viability (NCI-H358; first compound 0.1581 µM): 0.652
- relative viability (NCI-H358; first compound 0.5 µM): 0.848
- relative viability (NCI-H1755; first compound 0.005 µM): 0.778
- relative viability (NCI-H1755; first compound 0.01581 µM): 0.798
- relative viability (NCI-H1755; first compound 0.05 µM): 0.543
- relative viability (NCI-H1755; first compound 0.1581 µM): 0.728
- relative viability (NCI-H1755; first compound 0.5 µM): 0.691
- relative viability (HOP-62; first compound 0.005 µM): 0.669
- relative viability (HOP-62; first compound 0.01581 µM): 0.644
- relative viability (HOP-62; first compound 0.05 µM): 0.618
- relative viability (HOP-62; first compound 0.1581 µM): 0.529
- relative viability (HOP-62; first compound 0.5 µM): 0.842
- relative viability (NCI-H2170; first compound 0.005 µM): 0.818
- relative viability (NCI-H2170; first compound 0.01581 µM): 0.926
- relative viability (NCI-H2170; first compound 0.05 µM): 0.736
- relative viability (NCI-H2170; first compound 0.1581 µM): 0.771
- relative viability (NCI-H2170; first compound 0.5 µM): 0.622
- relative viability (NCI-H460; first compound 0.005 µM): 0.614
- relative viability (NCI-H460; first compound 0.01581 µM): 0.7
- relative viability (NCI-H460; first compound 0.05 µM): 0.561
- relative viability (NCI-H460; first compound 0.1581 µM): 0.645
- relative viability (NCI-H460; first compound 0.5 µM): 0.737
- relative viability (A-427; first compound 0.005 µM): 0.915
- relative viability (A-427; first compound 0.01581 µM): 0.873
- relative viability (A-427; first compound 0.05 µM): 0.91
- relative viability (A-427; first compound 0.1581 µM): 0.892
- relative viability (A-427; first compound 0.5 µM): 0.838
- relative viability (LU99A; first compound 0.005 µM): 0.487
- relative viability (LU99A; first compound 0.01581 µM): 0.451
- relative viability (LU99A; first compound 0.1581 µM): 0.539
- relative viability (LU99A; first compound 0.5 µM): 0.469
- relative viability (NCI-H2085; first compound 0.005 µM): 0.817
- relative viability (NCI-H2085; first compound 0.01581 µM): 0.998
- relative viability (NCI-H2085; first compound 0.05 µM): 0.568
- relative viability (NCI-H2085; first compound 0.1581 µM): 0.844
- relative viability (NCI-H2085; first compound 0.5 µM): 0.834
- relative viability (LCLC-97TM1; first compound 0.005 µM): 0.857
- relative viability (LCLC-97TM1; first compound 0.01581 µM): 0.745
- relative viability (LCLC-97TM1; first compound 0.05 µM): 0.659
- relative viability (LCLC-97TM1; first compound 0.1581 µM): 0.717
- relative viability (LCLC-97TM1; first compound 0.5 µM): 0.979
- relative viability (COR-L 105; first compound 0.005 µM): 0.853
- relative viability (COR-L 105; first compound 0.01581 µM): 0.946
- relative viability (COR-L 105; first compound 0.05 µM): 0.858
- relative viability (COR-L 105; first compound 0.1581 µM): 0.778
- relative viability (COR-L 105; first compound 0.5 µM): 0.745
- relative viability (NCI-H1793; first compound 0.005 µM): 0.744
- relative viability (NCI-H1793; first compound 0.01581 µM): 0.873
- relative viability (NCI-H1793; first compound 0.1581 µM): 0.667
- relative viability (NCI-H1793; first compound 0.5 µM): 0.444
- relative viability (HCC-366; first compound 0.005 µM): 0.302
- relative viability (HCC-366; first compound 0.01581 µM): 0.356
- relative viability (HCC-366; first compound 0.1581 µM): 0.379
- relative viability (HCC-366; first compound 0.5 µM): 0.306
- relative viability (NCI-H1944; first compound 0.005 µM): 0.54
- relative viability (NCI-H1944; first compound 0.01581 µM): 0.603
- relative viability (NCI-H1944; first compound 0.1581 µM): 0.457
- relative viability (NCI-H1944; first compound 0.5 µM): 0.578
- relative viability (SW 900; first compound 0.005 µM): 0.432
- relative viability (SW 900; first compound 0.01581 µM): 0.573
- relative viability (SW 900; first compound 0.1581 µM): 0.478
- relative viability (SW 900; first compound 0.5 µM): 0.365
